According to US9101136B2, “Synergistic herbicide/fungicide composition containing certain pyridine carboxylic acids and certain fungicides” (Dow AgroSciences LLC, priority 2010, dated 2015):

Legend:
Assay type in all cases: in vivo
[1] = test system: Russian thistle (Salsola iberica L; SASKR); experiment: Postemergence herbicidal activity of mixtures on Russian thistle
Experimental: (§1) Seeds of the desired test plant species were planted in Sun Gro MetroMix 306 planting mixture, which typically has a pH of 6.0 to 6.8 and an organic matter content of about 30 percent, in plastic pots with a surface area of 103.2 square centimeters (cm^2). When required to ensure good germination and healthy plants, a fungicide treatment and/or other chemical or physical treatment was applied. The plants were grown for 7-36 days (d) in a greenhouse with an approximate 14-hour (h) photoperiod which was maintained at about 18° C. during the day and 17° C. during the night. Nutrients and water were added on a regular basis and supplemental lighting was provided with overhead metal halide 1000-Watt lamps as necessary. The plants were employed for testing when they reached the second or third true leaf stage.
(§2) Treatments consisted of a cereal fungicide compound (as listed in Tables 1 through 34) and the cereal herbicide, 4-amino-3-chloro-6-(4-chloro-2-fluoro-3-methoxyphenyl)pyridine-2-carboxylic acid, alone and in combination. Weighed amounts of acid, esters (methyl) or salts (triethylammonium, TEA) of 4-amino-3-chloro-6-(4-chloro-2-fluoro-3-methoxyphenyl)pyridine-2-carboxylic acid (Compound I) were placed in 25 milliliter (mL) glass vials and dissolved in a volume of 97:3 volume-to-volume (v/v) acetone/dimethyl sulfoxide (DMSO) to obtain 4.5 milligrams active ingredient per milliliter (mg ai/mL) concentrated solutions. […] The concentrated solutions of Compound I were diluted to 1.5 mg ai/mL with the addition of 2 volumes of an aqueous mixture containing acetone, water, isopropyl alcohol, DMSO, Agri-dex crop oil concentrate, and Triton® X-77 surfactant in a 64.7:26.0:6.7:2.0:0.7:0.01 v/v ratio. A dilution solution was prepared by mixing 1 volume of 97:3 v/v acetone/DMSO and 2 volumes of an aqueous mixture containing acetone, water, isopropyl alcohol, DMSO, Agri-dex crop oil concentrate, and Triton® X-77 surfactant in a 64.7:26.0:6.7:2.0:0.7:0.01 v/v ratio. Compound requirements are based upon a 12 mL application volume at a rate of 187 liters per hectare (L/ha). The concentrated solutions of the cereal fungicides were prepared following the same procedure. Weighed amounts of fungicide were placed in 25 mL glass vials and dissolved in a volume of 97:3 v/v acetone/DMSO to obtain concentrated fungicide solutions. The concentrated solutions of the safener were prepared following the same procedure. Weighed amounts of safener were placed in 25 mL glass vials and dissolved in a volume of 97:3 v/v acetone/DMSO to obtain concentrated safener solutions.
(§3) Spray solutions of the cereal herbicide and the fungicidal compound mixtures were prepared by adding the concentrated solutions to the appropriate amount of dilution solution to form 12 mL spray solution with active ingredients in combinations. Spray solutions of the cereal herbicide, herbicide safener and the fungicidal compound mixtures were prepared by adding the concentrated solutions to the appropriate amount of dilution solution to form 12 mL spray solution with active ingredients in combinations.
(§4) Formulated compounds were applied to the plant material with an overhead Mandel track sprayer equipped with 8002E nozzles calibrated to deliver 187 L/ha over an application area of 0.503 square meters (m^2) at a spray height of 18 inches […] above average plant canopy. Control plants were sprayed in the same manner with the solvent blank.
(§5) The treated plants and control plants were placed in a greenhouse as described above and watered by sub-irrigation to prevent wash-off of the test compounds. After 20-22 d, the condition of the test plants as compared with that of the control plants was determined visually and scored on a scale of 0 to 100 percent where 0 corresponds to no injury and 100 corresponds to complete kill. […]

[2] = test system: bird's-eye speedwell (Veronica persica L; VERPE); experiment: Postemergence herbicidal activity of mixtures on bird's-eye speedwell; conditions: Veronica persica, post-emergence, read-out: VERPE Ob
Experimental: as §1, §2, §3, §4, §5

[3] = test system: kochia (Kochia scoparia L; KCHSC); experiment: Postemergence herbicidal activity of mixtures on kochia; set-up: pest or weed control: dose or concentration left out as unconfirmed; conditions: for KCHSC Ob (observed control): alone
Experimental: as §1, §2, §3, §4, §5

[4] = test system: wild pansy (Viola tricolor L; VIOTR); experiment: Postemergence herbicidal activity of mixtures on wild pansy; conditions: Viola tricolor, post-emergence
Experimental: as §1, §2, §3, §4, §5

[5] = test system: scented mayweed (Matricaria chamomila L; MATCH); experiment: Postemergence herbicidal activity of mixtures on scented mayweed; set-up: pest or weed control: dose or concentration left out as unconfirmed; conditions: for MATCH Ob (observed control): alone
Experimental: as §1, §2, §3, §4, §5

Fc1ccc([C@]2(Cn3cncn3)O[C@H]2c2ccccc2Cl)cc1 (racemic) [Epoxiconazole, rel-1-[[(2R,3S)-3-(2-chlorophenyl)-2-(4-fluorophenyl)oxiranyl]methyl]-1H-1,2,4-triazole]
0%: pest or weed control at 31.25 g/ha ([1]; Salsola tragus, post-emergence, fungicide 31.25 g/ha alone, read-out: SASKR Ob) | pest or weed control at 31.25 g/ha ([2]; fungicide 31.25 g/ha alone) | pest or weed control at 31.25 g/ha ([3]; Bassia scoparia, post-emergence, fungicide 31.25 g/ha alone, read-out: KCHSC Ob) | pest or weed control at 31.25 g/ha ([4]; fungicide 31.25 g/ha alone, read-out: VIOTR Ob) | pest or weed control at 31.25 g/ha ([5]; Matricaria, post-emergence, fungicide 31.25 g/ha alone, read-out: MATCH Ob)

COC(=O)Nc1nc2ccccc2[nH]1 [Carbendazim, methyl 1H-benzimidazol-2-ylcarbamate]
0%: pest or weed control at 62.5 g/ha ([3]; Bassia scoparia, post-emergence, fungicide 62.5 g/ha alone, read-out: KCHSC Ob) | pest or weed control at 62.5 g/ha ([4]; fungicide 62.5 g/ha alone, read-out: VIOTR Ob)

N#Cc1c(Cl)c(Cl)c(Cl)c(C#N)c1Cl [Chlorothalonil, 2,4,5,6-tetrachloro-1,3-benzenedicarbonitrile]
0%: pest or weed control at 250 g/ha ([1]; Salsola tragus, post-emergence, fungicide 250 g/ha alone, read-out: SASKR Ob) | pest or weed control at 250 g/ha ([2]; fungicide 250 g/ha alone) | pest or weed control at 250 g/ha ([3]; Bassia scoparia, post-emergence, fungicide 250 g/ha alone, read-out: KCHSC Ob) | pest or weed control at 250 g/ha ([4]; fungicide 250 g/ha alone, read-out: VIOTR Ob) | pest or weed control at 250 g/ha ([5]; Matricaria, post-emergence, fungicide 250 g/ha alone, read-out: MATCH Ob)

Cc1cc(C2CC2)nc(Nc2ccccc2)n1 [Cyprodinil, 4-cyclopropyl-6-methyl-N-phenyl-2-pyrimidinamine]
0%: pest or weed control at 187.5 g/ha ([1]; Salsola tragus, post-emergence, fungicide 187.5 g/ha alone, read-out: SASKR Ob)

OC(Cn1cncn1)(c1ccc(F)cc1)c1ccccc1F (stereo not drawn) [Flutriafol, α-(2-fluorophenyl)-α-(4-fluorophenyl)-1H-1,2,4-triazole-1-ethanol]
0%: pest or weed control at 21.25 g/ha ([1]; Salsola tragus, post-emergence, fungicide 21.25 g/ha alone, read-out: SASKR Ob) | pest or weed control at 21.25 g/ha ([3]; Bassia scoparia, post-emergence, fungicide 21.25 g/ha alone, read-out: KCHSC Ob) | pest or weed control at 21.25 g/ha ([4]; fungicide 21.25 g/ha alone, read-out: VIOTR Ob) | pest or weed control at 21.25 g/ha ([5]; Matricaria, post-emergence, fungicide 21.25 g/ha alone, read-out: MATCH Ob)

CO/N=C(/C(=O)OC)c1ccccc1COc1ccccc1C [Kresoxim-methyl, methyl (αE)-α-(methoxyimino)-2-[(2-methylphenoxy)methyl]benzeneacetate]
0%: pest or weed control at 25 g/ha ([5]; Matricaria, post-emergence, fungicide 25 g/ha alone, read-out: MATCH Ob)

CC1(C)CCC(Cc2ccc(Cl)cc2)C1(O)Cn1cncn1 (stereo not drawn) [Metconazole, 5-[(4-chlorophenyl)methyl]-2,2-dimethyl-1-(1H-1,2,4-triazol-1-ylmethyl)cyclopentanol]
0%: pest or weed control ([3]; Bassia scoparia, post-emergence, read-out: KCHSC Ob) | pest or weed control ([5]; Matricaria, post-emergence, read-out: MATCH Ob)

COc1cc(C)c(C(=O)c2c(OC)ccc(Br)c2C)c(OC)c1OC [Metrafenone, (3-bromo-6-methoxy-2-methylphenyl)(2,3,4-trimethoxy-6-methylphenyl)methanone]
0%: pest or weed control at 37.5 g/ha ([1]; Salsola tragus, post-emergence, fungicide 37.5 g/ha alone, read-out: SASKR Ob) | pest or weed control at 37.5 g/ha ([4]; fungicide 37.5 g/ha alone, read-out: VIOTR Ob) | pest or weed control at 37.5 g/ha ([5]; Matricaria, post-emergence, fungicide 37.5 g/ha alone, read-out: MATCH Ob)

CCCOc1nc2ccc(I)cc2c(=O)n1CCC [Proquinazid, 6-iodo-2-propoxy-3-propyl-4(3H)-quinazolinone]
0%: pest or weed control at 12.5 g/ha ([4]; fungicide 12.5 g/ha alone, read-out: VIOTR Ob) | pest or weed control at 12.5 g/ha ([5]; Matricaria, post-emergence, fungicide 12.5 g/ha alone, read-out: MATCH Ob)

OC(Cc1ccccc1Cl)(Cn1[nH]cnc1=S)C1(Cl)CC1 (stereo not drawn) [Prothioconazole, 2-[2-(1-chlorocyclopropyl)-3-(2-chlorophenyl)-2-hydroxypropyl]-1,2-dihydro-3H-1,2,4-triazole-3-thione]
0%: pest or weed control at 50 g/ha ([1]; Salsola tragus, post-emergence, fungicide 50 g/ha alone, read-out: SASKR Ob) | pest or weed control at 50 g/ha ([2]; fungicide 50 g/ha alone) | pest or weed control at 50 g/ha ([3]; Bassia scoparia, post-emergence, fungicide 50 g/ha alone, read-out: KCHSC Ob) | pest or weed control at 50 g/ha ([5]; Matricaria, post-emergence, fungicide 50 g/ha alone, read-out: MATCH Ob)

CCCN(CC)CC1COC2(CCC(C(C)(C)C)CC2)O1 (stereo not drawn) [Spiroxamine, 8-(1,1-dimethylethyl)-N-ethyl-N-propyl-1,4-dioxaspiro[4.5]decane-2-methanamine]
0%: KCHSC Ob (observed control) ([3]; 180 g/ha) | pest or weed control at 180 g/ha ([4]; alone, 180 g/ha, read-out: VIOTR Ob (observed control)) | MATCH Ob (observed control) ([5]; 180 g/ha)

COc1ccnc(C(=O)N[C@H]2COC(=O)[C@H](Cc3ccccc3)[C@@H](OC(=O)C(C)C)[C@H](C)OC2=O)c1OCOC(=O)C(C)C [compound II, isobutyric acid (3S,6S,7R,8R)-8-benzyl-3-[(3-isobutyryloxymethoxy-4-methoxypyridine-2-carbonyl)-amino]-6-methyl-4,9-dioxo-[1,5]dioxonan-7-yl ester]
0%: SASKR Ob (observed control) ([1]; alone, 40.5 g/ha) | KCHSC Ob (observed control) ([3]; 40.5 g/ha) | pest or weed control at 40.5 g/ha ([4]; read-out: VIOTR Ob (observed control)) | MATCH Ob (observed control) ([5]; 40.5 g/ha)
